These results are taken from ChEMBL document CHEMBL5614367, “Hydroxamic acid hybrids: Histone deacetylase inhibitors with anticancer therapeutic potency” (Eur J Med Chem, 2023).

One data set concerns SW-620. The experiment in a line: Antiproliferative activity against human SW620 cells incubated for 48 hrs by colorimetric method. The conditions noted are these: SW-620, 48 h. The format is functional, cell-based.
For data set [1], the system named is PC-3. The experiment in a line: Antiproliferative activity against human PC-3 cells incubated for 48 hrs by colorimetric method. The format is functional, cell-based. The conditions noted are these: PC-3, 48 h.
A further data set has as its system NCI-H23. Kind of data set: Antiproliferative activity against human NCI-H23 cells incubated for 48 hrs by colorimetric method. Format: functional, cell-based. The conditions noted are these: NCI-H23, 48 h.
Another data set concerns SAOS-2. The experiment in a line: Antiproliferative activity against human SAOS-2 cells. Format: functional.
The next data set concerns HOS. The experiment in a line: Antiproliferative activity against human HOS cells. Format: functional.
In another data set the test system is 143B. Kind of data set: Antiproliferative activity against human 143B cells. Format: functional.
Data set [2] has as its system A549. The experiment in a line: Antiproliferative activity against human A549 cells assessed as inhibition of cell growth incubated for 48 hrs by SRB assay. Format: functional, cell-based. The conditions noted are these: A549, 48 h. In general terms: In SRB staining, fixed cells bind dye roughly in proportion to their protein.
The subject of data set [3] is HCT-116. Kind of data set: cells. Particulars: Homo sapiens, HCT-116, 48 h. Format: functional, cell-based.
The target in data set [4] is T1, Protein deacetylase HDAC6 (Homo sapiens, UniProt Q9UBN7).
T1 sequence (Q9UBN7 whole entry): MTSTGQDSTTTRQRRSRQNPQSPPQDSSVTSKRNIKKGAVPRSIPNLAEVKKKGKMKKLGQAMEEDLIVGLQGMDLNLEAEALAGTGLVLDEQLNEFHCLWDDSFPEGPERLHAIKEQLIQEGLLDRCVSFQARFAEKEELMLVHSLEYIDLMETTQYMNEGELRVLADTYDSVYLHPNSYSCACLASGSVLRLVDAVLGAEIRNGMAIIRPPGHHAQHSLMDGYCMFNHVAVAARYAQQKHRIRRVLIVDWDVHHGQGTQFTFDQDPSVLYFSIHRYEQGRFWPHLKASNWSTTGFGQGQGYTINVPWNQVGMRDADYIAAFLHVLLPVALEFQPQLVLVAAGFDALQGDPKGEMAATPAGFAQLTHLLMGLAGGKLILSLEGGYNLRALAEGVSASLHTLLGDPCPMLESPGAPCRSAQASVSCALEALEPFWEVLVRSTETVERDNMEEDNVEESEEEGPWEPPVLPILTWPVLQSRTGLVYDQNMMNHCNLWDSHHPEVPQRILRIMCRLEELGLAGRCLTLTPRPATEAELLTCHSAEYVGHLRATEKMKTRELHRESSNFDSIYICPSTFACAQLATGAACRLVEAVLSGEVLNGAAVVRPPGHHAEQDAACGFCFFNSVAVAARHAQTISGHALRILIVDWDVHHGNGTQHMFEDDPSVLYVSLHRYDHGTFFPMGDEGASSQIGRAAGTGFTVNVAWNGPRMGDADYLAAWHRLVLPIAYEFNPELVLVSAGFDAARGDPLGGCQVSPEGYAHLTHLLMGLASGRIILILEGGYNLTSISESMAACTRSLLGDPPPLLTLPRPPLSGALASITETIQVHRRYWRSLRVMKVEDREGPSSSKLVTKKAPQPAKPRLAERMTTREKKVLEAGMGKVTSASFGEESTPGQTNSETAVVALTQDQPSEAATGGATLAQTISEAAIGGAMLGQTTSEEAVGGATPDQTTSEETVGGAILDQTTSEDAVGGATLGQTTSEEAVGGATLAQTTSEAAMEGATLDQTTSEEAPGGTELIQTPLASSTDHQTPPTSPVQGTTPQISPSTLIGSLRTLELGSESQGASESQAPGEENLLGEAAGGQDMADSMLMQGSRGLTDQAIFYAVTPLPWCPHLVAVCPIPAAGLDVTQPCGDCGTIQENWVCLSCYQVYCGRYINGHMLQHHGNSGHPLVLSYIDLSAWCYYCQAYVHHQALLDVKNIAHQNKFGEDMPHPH
Kind of data set: Inhibition of human recombinant HDAC6 using Fluor-de-Lys deacetylase as substrate by Spectrofluorimetry.

In data set [5] the test system is HCT-116. The experiment in a line: Antiproliferative activity against human HCT-116 cells measured after 72 hrs by MTT assay. Format: functional, cell-based. Particulars: HCT-116, 72 h.
Data set [6] relates to MCF7. Kind of data set: Antiproliferative activity against human MCF7 cells measured after 72 hrs by MTT assay. The format is functional, cell-based. Particulars: MCF7, 72 h. For orientation: Formazan colour is commonly taken as a measure of viable cells.
Data set [7] deals with A549. Kind of data set: Antiproliferative activity against human A549 cells measured after 72 hrs by MTT assay. Particulars: A549, 72 h. Format: functional, cell-based.
Data set [8] has as its target T2, Histone deacetylase 1 (Homo sapiens, UniProt Q13547). Kind of data set: Inhibition of HDAC1 (unknown origin) using Ac-peptide as substrate pretreated for 15 mins followed by substrate addition and measured after 60 mins.
In a further data set the test system is MDA-MB-231. The experiment in a line: Antiproliferative activity against human MDA-MB-231 cells assessed as inhibition of cell growth incubated for 72 hrs by MTT assay. Format: functional, cell-based. The conditions noted are these: MDA-MB-231, 72 h.
In data set [9] the test system is MCF7. Kind of data set: Antiproliferative activity against human MCF7 cells assessed as inhibition of cell growth incubated for 72 hrs by MTT assay. Format: functional, cell-based. Particulars: MCF7, 72 h.
In data set [10] the test system is PC-3. The experiment in a line: Antiproliferative activity against human PC-3 cells assessed as inhibition of cell growth incubated for 72 hrs by MTT assay. Format: functional, cell-based. The conditions noted are these: PC-3, 72 h.
For the next data set, the system named is SK-N-BE(2). Kind of data set: Antiproliferative activity against human SK-N-BE(2) cells assessed as inhibition of cell growth incubated for 72 hrs by MTT assay. The format is functional, cell-based. The conditions noted are these: SKNBE2, 72 h.
The next data set deals with KG-1. Kind of data set: Antiproliferative activity against human KG-1 cells assessed as inhibition of cell growth incubated for 72 hrs by MTT assay. The format is functional, cell-based. The conditions noted are these: KG-1, 72 h.
A further data set deals with MOLT-4. The experiment in a line: Antiproliferative activity against human MOLT-4 cells assessed as inhibition of cell growth incubated for 72 hrs by MTT assay. The format is functional, cell-based. Particulars: MOLT-4, 72 h.
Data set [11] relates to HEL. Kind of data set: Antiproliferative activity against human HEL cells assessed as inhibition of cell growth incubated for 72 hrs by MTT assay. The format is functional, cell-based.
The test system of the next data set is K562. Kind of data set: Antiproliferative activity against human K562 cells measured after 72 hrs by CCK-8 assay. Format: functional, cell-based. Particulars: K562, 72 h.
The subject of another data set is MV4-11. The experiment in a line: Antiproliferative activity against human MV4-11 cells measured after 72 hrs by CCK-8 assay. The conditions noted are these: MV4-11, 72 h. Format: functional, cell-based.
The test system of data set [12] is HEL. The experiment in a line: Antiproliferative activity against human HEL cells measured after 72 hrs by CCK-8 assay. Format: functional, cell-based.
A further data set has as its system SU-DHL-2. The experiment in a line: Antiproliferative activity against human SU-DHL-2 cells measured after 72 hrs by CCK-8 assay. Format: functional, cell-based. The conditions noted are these: SU-DHL-2, 72 h.
Another data set deals with WSUDLCL2. The experiment in a line: Antiproliferative activity against human WSUDLCL2 cells measured after 72 hrs by CCK-8 assay. The format is functional, cell-based. The conditions noted are these: WSUDLCL2, 72 h.
Data set [13] has as its target T2, Histone deacetylase 1. Kind of data set: Inhibition of HDAC1 (unknown origin) preincubated for 10 mins followed by substrate addition and measured after 30 mins by fluorescence based microplate reader analysis.
Another data set has as its system HepG2. Kind of data set: cells. The conditions noted are these: Homo sapiens, HepG2, 72 h. Format: functional, cell-based.
Data set [14] has as its system A549. Kind of data set: cells. The format is functional, cell-based. The conditions noted are these: Homo sapiens, A549, 72 h.
Another data set deals with KYSE-30. The experiment in a line: cells. Format: functional, cell-based. Particulars: Homo sapiens, KYSE-30, 72 h.
The test system of a further data set is TPC1. The experiment in a line: cells. Format: functional, cell-based. Particulars: Homo sapiens, TPC1, 72 h.
In a further data set the test system is HGC-27. The experiment in a line: cells. The conditions noted are these: Homo sapiens, HGC-27, 72 h. Format: functional, cell-based.
The test system of another data set is Raji. The experiment in a line: cells. The format is functional, cell-based. Particulars: Homo sapiens, 72 h.
A further data set has as its system HL-60. Kind of data set: cells. The format is functional, cell-based. The conditions noted are these: Homo sapiens, HL-60, 72 h.
Data set [15] is described as follows: Cytotoxicity against human CCC-HEL-1 cells assessed as inhibition of cell growth incubated for 72 hrs by MTT assay. Format: toxicity, cell-based.
The nature of data set [16]: Cytotoxicity against rat H9c2 cells assessed as inhibition of cell growth incubated for 72 hrs by MTT assay. Format: toxicity, cell-based.
The next data set concerns the target Histone deacetylase 2 (Homo sapiens, UniProt Q92769). The experiment in a line: Inhibition of HDAC2 (unknown origin) incubated for 30 mins by fluorescence based microplate reader analysis.
The target in a further data set is Histone deacetylase 3 (Homo sapiens, UniProt O15379). Kind of data set: Inhibition of HDAC3 (unknown origin) incubated for 30 mins by fluorescence based microplate reader analysis.
Sequence of Histone deacetylase 3 (O15379 whole entry): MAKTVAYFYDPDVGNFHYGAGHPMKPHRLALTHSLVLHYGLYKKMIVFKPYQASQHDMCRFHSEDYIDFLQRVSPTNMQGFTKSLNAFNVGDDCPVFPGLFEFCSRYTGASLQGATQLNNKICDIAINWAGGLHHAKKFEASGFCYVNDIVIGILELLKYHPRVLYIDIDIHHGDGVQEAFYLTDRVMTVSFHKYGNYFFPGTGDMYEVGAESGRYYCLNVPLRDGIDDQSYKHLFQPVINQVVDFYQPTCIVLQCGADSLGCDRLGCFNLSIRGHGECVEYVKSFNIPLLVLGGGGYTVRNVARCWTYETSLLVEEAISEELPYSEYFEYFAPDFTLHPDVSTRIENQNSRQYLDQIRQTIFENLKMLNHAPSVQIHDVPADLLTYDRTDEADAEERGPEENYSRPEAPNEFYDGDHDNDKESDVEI
For data set [17], the target named is T1, Protein deacetylase HDAC6. The experiment in a line: Inhibition of HDAC6 (unknown origin) incubated for 30 mins by fluorescence based microplate reader analysis.
Data set [18] relates to A549. The experiment in a line: Antitumor activity against human A549 cells xenografted in zebrafish model assessed as inhibition of cell proliferation incubated for 5 days by fluorescence microscopic analysis. Format: functional, cell-based. The conditions noted are these: A549, 120 h.

pIC50: −log10 of the molar value.

T2 sequence (Q13547 whole entry): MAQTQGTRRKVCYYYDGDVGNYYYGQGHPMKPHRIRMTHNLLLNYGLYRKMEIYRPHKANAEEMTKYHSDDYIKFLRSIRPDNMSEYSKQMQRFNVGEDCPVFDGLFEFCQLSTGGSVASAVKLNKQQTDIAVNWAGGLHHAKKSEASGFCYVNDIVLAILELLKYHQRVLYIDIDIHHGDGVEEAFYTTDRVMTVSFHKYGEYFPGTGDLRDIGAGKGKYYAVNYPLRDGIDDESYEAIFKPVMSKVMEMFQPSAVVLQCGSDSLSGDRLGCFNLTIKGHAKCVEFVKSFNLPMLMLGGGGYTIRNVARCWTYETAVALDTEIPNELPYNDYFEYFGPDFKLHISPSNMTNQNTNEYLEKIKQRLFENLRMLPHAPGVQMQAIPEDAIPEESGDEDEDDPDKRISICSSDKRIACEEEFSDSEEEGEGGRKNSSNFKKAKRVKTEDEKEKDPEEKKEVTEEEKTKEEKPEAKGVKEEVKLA
Sequence of Histone deacetylase 2 (Q92769 whole entry): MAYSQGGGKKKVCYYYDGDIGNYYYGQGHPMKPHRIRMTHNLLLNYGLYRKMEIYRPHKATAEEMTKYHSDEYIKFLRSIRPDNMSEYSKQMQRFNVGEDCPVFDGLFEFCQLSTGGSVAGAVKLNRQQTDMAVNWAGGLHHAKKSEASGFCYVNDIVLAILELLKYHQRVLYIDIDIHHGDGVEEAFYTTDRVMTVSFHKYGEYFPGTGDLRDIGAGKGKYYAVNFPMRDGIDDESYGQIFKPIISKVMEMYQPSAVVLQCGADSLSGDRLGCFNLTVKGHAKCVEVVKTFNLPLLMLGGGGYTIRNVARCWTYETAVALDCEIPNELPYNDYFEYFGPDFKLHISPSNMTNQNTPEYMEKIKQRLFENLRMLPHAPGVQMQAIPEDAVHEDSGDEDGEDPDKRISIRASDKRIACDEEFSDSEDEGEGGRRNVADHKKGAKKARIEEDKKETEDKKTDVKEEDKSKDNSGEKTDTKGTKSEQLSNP

Consider `O=C(/C=C/c1cccc(S(=O)(=O)Nc2ccccc2)c1)NO` [BELINOSTAT], for which the pIC50 in the data set on SW-620, in the data set with PC-3 [1] and in the data set with NCI-H23 was 5.60 in each case. The GI50 in the data set on SAOS-2, in the data set with HOS and in the data set with 143B was 3300 nM each time.
In the case of `O=C(NO)c1ccc(CNc2cccc3cc(-c4ccncc4)cnc23)cc1`, the pIC50 (commonly the negative decadic logarithm of the IC50, by convention in mol/L) in the data set on A549 [2] was 5.89; in the data set with HCT-116 [3] it was 5.89; in [4], 8.09.
Take `COc1cc2c(Oc3ccc(NC(=O)C4CCN(c5ccc(F)cc5)C4=O)cc3)ccnc2cc1OCCCCCCC(=O)NO` (centres undefined): the pIC50 was 6.55 in the data set with HCT-116 [5], 6.55 with MCF7 [6], 6.55 in the data set with A549 [7] and 7.57 at Histone deacetylase 1 [8].
Take `Nc1nc2ccc(OC(F)(F)F)cc2s1` [RILUZOLE]: the negative-log IC50 (pIC50) in the data set with MDA-MB-231, in the data set on MCF7 [9], with PC-3 [10], in the data set with SK-N-BE(2), in the data set with KG-1 and with MOLT-4 was under 5.00 throughout. Further, the pIC50 in the data set with HEL [11] is under 5.00.
In the case of `C=C[C@]1(C)CC[C@@H](C(=C)Cn2cccn2)C[C@H]1C(=C)CN1CCN(C(=O)CCCCCCC(=O)NO)CC1`, the negative-log IC50 (pIC50) was 6.00 with K562; 6.00 in the data set with MV4-11; 6.00 with HEL [12]; 6.00 with SU-DHL-2; 6.00 in the data set with WSUDLCL2; 8.10 against Histone deacetylase 1 [13].
On to `O=C(CCCCCCC(=O)Nc1nc2c(s1)C[C@@H](NC(=O)c1cccc3ccccc13)CC2)NO`, for which the pIC50 in the data set with HepG2, in the data set on A549 [14], in the data set with KYSE-30, in the data set with TPC1, with HGC-27 and in the data set on Raji was 5.91 in each case. Besides, the pIC50 in the data set on HL-60 was 5.91; against Histone deacetylase 2, 8.85; at Histone deacetylase 3 it was 8.85; in data set [17], 8.85; in the data set with A549 [18] it was 5.82. Further, the half-maximal inhibitory concentration (IC50) – broadly, the midpoint of a concentration-inhibition curve – at 72 h is 24400 nM in [15] and 43800 nM in [16].
